# Measurements published in ChEMBL document CHEMBL4411307, “N,N'-diaryl-bishydrazones in a biphenyl platform: Broad spectrum antifungal agents” (Eur J Med Chem, 2019).
# Active and inactive are the calls of the source. No cut-off for these calls is given here.
# Assays:
# Candida albicans [1] = assay: Selectivity ratio of MIC90 for antibiofilm activity against fluconazole/ITC-resistant Candida albicans ATCC 10231 assessed as reduction in sessile growth to MIC for fluconazole/ITC-resistant Candida albicans ATCC 10231; assay type: functional
# [2] = Selectivity index, ratio of compound concentration showing <20 to <30% hemolysis in mouse RBC to MIC for fluconazole/ITC-resistant Candida albicans ATCC 64124; assay type: toxicity; conditions: red blood cells (erythrocytes), read-out: Selectivity Index
# [3] = Hemolytic activity in mouse RBC at 3.9 ug/ml after 1 hr relative to control; assay type: ADME, cell-based, Erythrocyte; conditions: red blood cells (erythrocytes), read-out: Activity
# Enterococcus = assay: Antibacterial activity against vancomycin-resistant Enterococcus; assay type: functional, organism-based
# [4] = Selectivity index, ratio of compound concentration showing <20 to <30% hemolysis in mouse RBC to MIC for Candida parapsilosis ATCC 22019; assay type: toxicity; conditions: mouse red blood cells (RBC), read-out: Selectivity Index
# [5] = Selectivity index, ratio of CC50 for human A549 cells to MIC for fluconazole/ITC-susceptible Candida albicans ATCC MYA-2310; assay type: toxicity; conditions: read-out: Selectivity Index
# Candida parapsilosis = assay: Antifungal activity against Candida parapsilosis ATCC 22019 measured after 48 hrs by CLSI M27-A3 protocol based method; assay type: functional; conditions: Lodderomyces parapsilosis, ATCC 22019, 48 h
# [6] = Hemolytic activity in mouse RBC at 7.8 ug/ml after 1 hr relative to control; assay type: ADME, cell-based, Erythrocyte; conditions: red blood cells (erythrocytes), read-out: Activity
# [7] = Selectivity index, ratio of CC50 for human A549 cells to MIC for fluconazole/ITC-resistant Candida albicans ATCC MYA-1237; assay type: toxicity; conditions: read-out: Selectivity Index
# A549 = assay: Cytotoxicity against human A549 cells after 24 hrs by resazurin based assay; assay type: cell-based; conditions: a549, 24 h
# [8] = Selectivity index, ratio of compound concentration showing <20 to <30% hemolysis in mouse RBC to MIC for Aspergillus nidulans ATCC 38163; assay type: toxicity; conditions: mouse red blood cells (RBC), read-out: Selectivity Index
# Aspergillus nidulans = assay: Antifungal activity against Aspergillus nidulans ATCC 38163 measured after 48 hrs by CLSI M38-A2 protocol based method; assay type: functional; conditions: ATCC 38163, 48 h
# [9] = Selectivity index, ratio of CC50 for human A549 cells to MIC for fluconazole/ITC-resistant Candida albicans ATCC MYA-1003; assay type: toxicity; conditions: read-out: Selectivity Index
# Candida albicans [10] = assay: Antibiofilm activity against fluconazole/ITC-resistant Candida albicans ATCC 64124 assessed as reduction in sessile growth after 24 hrs by XTT assay; assay type: functional; conditions: ATCC 64124, 24 h
# [11] = Selectivity index, ratio of compound concentration showing <20 to <30% hemolysis in mouse RBC to MIC for fluconazole/ITC-resistant Candida albicans ATCC 10231; assay type: toxicity; conditions: red blood cells (erythrocytes), read-out: Selectivity Index
# Candida albicans [12] = assay: Antifungal activity against fluconazole/ITC-resistant Candida albicans ATCC 90819 measured after 48 hrs by CLSI M27-A3 protocol based method; assay type: functional; conditions: ATCC 90819, 48 h
# [13] = Selectivity index, ratio of compound concentration showing <20 to <30% hemolysis in mouse RBC to MIC for fluconazole/ITC-resistant Candida albicans ATCC MYA-1237; assay type: toxicity; conditions: mouse red blood cells (RBC), read-out: Selectivity Index
# [14] = Selectivity index, ratio of compound concentration showing <20 to <30% hemolysis in mouse RBC to MIC for Aspergillus flavus ATCC MYA-3631; assay type: toxicity; conditions: mouse red blood cells (RBC), read-out: Selectivity Index
# [15] = Selectivity index, ratio of compound concentration showing <20 to <30% hemolysis in mouse RBC to MIC for Aspergillus terreus ATCC MYA-3633; assay type: toxicity; conditions: mouse red blood cells (RBC), read-out: Selectivity Index
# [16] = Selectivity index, ratio of CC50 for human A549 cells to MIC for Candida krusei ATCC 6258; assay type: toxicity; conditions: read-out: Selectivity Index
# BEAS-2B = assay: Cytotoxicity against human BEAS2B cells after 24 hrs by resazurin based assay; assay type: cell-based
# [17] = Selectivity index, ratio of CC50 for human A549 cells to MIC for fluconazole/ITC-resistant Candida albicans ATCC 64124; assay type: toxicity; conditions: read-out: Selectivity Index
# [18] = Selectivity index, ratio of compound concentration showing <20 to <30% hemolysis in mouse RBC to MIC for Candida krusei ATCC 6258; assay type: toxicity; conditions: mouse red blood cells (RBC), read-out: Selectivity Index
# [19] = Selectivity index, ratio of CC50 for human A549 cells to MIC for fluconazole/ITC-resistant Candida albicans ATCC 10231; assay type: toxicity; conditions: read-out: Selectivity Index
# Candida albicans [20] = assay: Selectivity ratio of MIC50 for antibiofilm activity against fluconazole/ITC-resistant Candida albicans ATCC 64124 assessed as reduction in sessile growth to MIC for fluconazole/ITC-resistant Candida albicans ATCC 64124; assay type: functional
# Candida albicans [21] = assay: Antibiofilm activity against fluconazole/ITC-resistant Candida albicans ATCC 10231 assessed as reduction in sessile growth after 24 hrs by XTT assay; assay type: functional; conditions: ATCC 10231, 24 h
# Candida albicans [22] = assay: Antifungal activity against fluconazole/ITC-susceptible Candida albicans ATCC MYA-2310 measured after 48 hrs by CLSI M27-A3 protocol based method; assay type: functional; conditions: ATCC MYA-2310, 48 h
# Nakaseomyces glabratus = assay: Antifungal activity against Candida glabrata ATCC 2001 measured after 48 hrs by CLSI M27-A3 protocol based method; assay type: functional; conditions: CBS 138, 48 h
# Staphylococcus aureus = assay: Antibacterial activity against methicillin-resistant Staphylococcus aureus; assay type: functional, organism-based
# Candida albicans [23] = assay: Selectivity ratio of MIC90 for antibiofilm activity against fluconazole/ITC-resistant Candida albicans ATCC 64124 assessed as reduction in sessile growth to MIC for fluconazole/ITC-resistant Candida albicans ATCC 64124; assay type: functional
# [24] = Hemolytic activity in mouse RBC at 31.3 ug/ml after 1 hr relative to control; assay type: ADME, cell-based, Erythrocyte; conditions: red blood cells (erythrocytes), read-out: Activity
# Candida albicans [25] = assay: Fungicidal activity against fluconazole/ITC-resistant Candida albicans ATCC 64124 assessed as reduction in fungal growth at 0.5 to 2 times MIC incubated for 24 hrs followed by replating on PDA plates measured after 48 hrs Time-Kill assay; assay type: functional, organism-based
# [26] = Selectivity index, ratio of compound concentration showing <20 to <30% hemolysis in mouse RBC to MIC for fluconazole/ITC-susceptible Candida albicans ATCC MYA-2310; assay type: toxicity; conditions: mouse red blood cells (RBC), read-out: Selectivity Index
# [27] = Selectivity index, ratio of compound concentration showing <20 to <30% hemolysis in mouse RBC to MIC for fluconazole/ITC-susceptible Candida albicans ATCC MYA-2876; assay type: toxicity; conditions: red blood cells (erythrocytes), read-out: Selectivity Index
# Aspergillus terreus = assay: Antifungal activity against Aspergillus terreus ATCC MYA-3633 measured after 48 hrs by CLSI M38-A2 protocol based method; assay type: functional; conditions: ATCC MYA-3633, 48 h
# [28] = Hemolytic activity in mouse RBC at […] ug/ml after 1 hr relative to control; assay type: ADME, cell-based, Erythrocyte; conditions: red blood cells (erythrocytes), read-out: Activity
# [29] = Hemolytic activity in mouse RBC at 62.5 ug/ml after 1 hr relative to control; assay type: ADME, cell-based, Erythrocyte; conditions: red blood cells (erythrocytes), read-out: Activity
# [30] = Hemolytic activity in mouse RBC at […] after 1 hr relative to control; assay type: ADME, cell-based, Erythrocyte; conditions: red blood cells (erythrocytes), read-out: Activity; note: tested at 0.48 µg/mL
# Aspergillus flavus = assay: Antifungal activity against Aspergillus flavus ATCC MYA-3631 measured after 48 hrs by CLSI M38-A2 protocol based method; assay type: functional; conditions: ATCC MYA-3631, 48 h
structure (smiles),measurement,setting,value
C/C(=N\Nc1ccc(F)cc1)c1ccc(-c2ccc(/C(C)=N/Nc3ccc(F)cc3)cc2)cc1,selectivity ratio,Candida albicans [1],16
same,selectivity ratio,[2],1 to 32
same,"hemolysis at 1 h, 3.9 ug/ml",[3],2.6%
same,Activity,Enterococcus,inactive
same,selectivity ratio,[4],1 to 32
same,selectivity ratio,[5],8.5
same,MIC,Candida parapsilosis,15.6 µg/mL
same,"hemolysis at 1 h, 7.8 ug/ml",[6],5.9%
same,selectivity ratio,[7],2.1
same,CC50,A549,16.6 µg/mL
same,selectivity ratio,[8],1 to 32
same,MIC,Aspergillus nidulans,7.8 µg/mL
same,selectivity ratio,[9],2.1
same,MIC50,Candida albicans [10],16 µg/mL
same,MIC90,Candida albicans [10],> 32 µg/mL
same,selectivity ratio,[11],1 to 32
same,MIC,Candida albicans [12],7.8 µg/mL
same,selectivity ratio,[13],1 to 32
same,selectivity ratio,[14],1 to 32
same,selectivity ratio,[15],1 to 32
same,selectivity ratio,[16],8.5
same,CC50,BEAS-2B,10.7 µg/mL
same,selectivity ratio,[17],4.3
same,selectivity ratio,[18],1 to 32
same,selectivity ratio,[19],8.5
same,selectivity ratio,Candida albicans [20],4
same,MIC50,Candida albicans [21],8 µg/mL
same,MIC90,Candida albicans [21],> 32 µg/mL
same,MIC,Candida albicans [22],1.95 µg/mL
same,MIC,Nakaseomyces glabratus,15.6 µg/mL
same,Activity,Staphylococcus aureus,inactive
same,selectivity ratio,Candida albicans [23],8
same,"hemolysis at 1 h, 31.3 ug/ml",[24],9.5%
same,Activity,Candida albicans [25],Active
same,selectivity ratio,[26],1 to 32
same,selectivity ratio,[27],1 to 32
same,MIC,Aspergillus terreus,> 31.3 µg/mL
same,"hemolysis at 1 h, 15.6 ug/ml",[28]; at 15.6 µg/mL,7.4%
same,"hemolysis at 1 h, 0.975 ug/ml",[28],1.4%
same,"hemolysis at 1 h, 62.5 ug/ml",[29],26.2%
same,"hemolysis at 1 h, […]",[30],0%
same,MIC,Aspergillus flavus,> 31.3 µg/mL
